Assay results: paper PMC11277489, “Novel Piperazine Derivatives of Vindoline as Anticancer Agents” (International Journal of Molecular Sciences, 2024)
Like-named read-outs stand apart in the source and are kept apart here.

What was measured:
Assay type in all cases: cell-based
MCF7 = assay: NCI60 five-dose screen, Breast Cancer; settings: Homo sapiens; MCF7, Breast Cancer; five-dose screen; read-out: GI50
NCI-H322M = assay: NCI60 five-dose screen, Non-small Cell Lung Cancer; settings: Homo sapiens, Non-small Cell Lung Cancer, five-dose screen, read-out: GI50
HT29 = assay: NCI60 five-dose screen, Colon Cancer; settings: Homo sapiens, HT-29; HT29, Colon Cancer; five-dose screen; read-out: GI50
COLO 205 = assay: NCI60 five-dose screen, Colon Cancer; settings: Homo sapiens; COLO 205, Colon Cancer; five-dose screen; read-out: GI50
MDA-MB231ATCC = assay: NCI60 five-dose screen, Breast Cancer; settings: Homo sapiens, MDA-MB-231; MDA-MB231ATCC, Breast Cancer; five-dose screen; read-out: GI50
MDA-MB-468 = assay: NCI60 five-dose screen, Breast Cancer; settings: Homo sapiens; MDA-MB-468, Breast Cancer; five-dose screen; read-out: GI50
TK-10 = assay: NCI60 five-dose screen, Renal Cancer; settings: Homo sapiens; TK-10, Renal Cancer; five-dose screen; read-out: GI50
[1] = system: 60 human tumor cell lines (NCI60); assay: NCI60 five-dose screen, whole panel and sub-panel means; settings: Homo sapiens, read-out: GI50 Mean
SR = assay: NCI60 five-dose screen, Leukemia; settings: Homo sapiens, Leukemia, five-dose screen, read-out: GI50
HCT-116 = assay: NCI60 five-dose screen, Colon Cancer; settings: Homo sapiens; HCT-116, Colon Cancer; five-dose screen; read-out: GI50
SK-OV-3 = assay: NCI60 five-dose screen, Ovarian Cancer; settings: Homo sapiens; SK-OV-3, Ovarian Cancer; five-dose screen; read-out: GI50
MDA-MB-435 = assay: NCI60 five-dose screen, Melanoma; settings: Homo sapiens; MDA-MB-435, Melanoma; five-dose screen; read-out: GI50
MALME-3M = assay: NCI60 five-dose screen, Melanoma; settings: Homo sapiens; MALME-3M, Melanoma; five-dose screen; read-out: GI50
EKVX = assay: NCI60 five-dose screen, Non-small Cell Lung Cancer; settings: Homo sapiens, Non-small Cell Lung Cancer, five-dose screen, read-out: GI50
UO-31 = assay: NCI60 five-dose screen, Renal Cancer; settings: Homo sapiens; UO-31, Renal Cancer; five-dose screen; read-out: GI50
DU-145 = assay: NCI60 five-dose screen, Prostate Cancer; settings: Homo sapiens; DU-145, Prostate Cancer; five-dose screen; read-out: GI50
SNB-19 = assay: NCI60 five-dose screen, CNS Cancer; settings: Homo sapiens; SNB-19, CNS Cancer; five-dose screen; read-out: GI50
OVCAR-8 = assay: NCI60 five-dose screen, Ovarian Cancer; settings: Homo sapiens; OVCAR-8, Ovarian Cancer; five-dose screen; read-out: GI50
CCRF-CEM = assay: NCI60 five-dose screen, Leukemia; settings: Homo sapiens, Leukemia, five-dose screen, read-out: GI50
OVCAR-5 = assay: NCI60 five-dose screen, Ovarian Cancer; settings: Homo sapiens; OVCAR-5, Ovarian Cancer; five-dose screen; read-out: GI50
SN12C = assay: NCI60 five-dose screen, Renal Cancer; settings: Homo sapiens, Renal Cancer, five-dose screen, read-out: GI50
M14 = assay: NCI60 five-dose screen, Melanoma; settings: Homo sapiens; M14, Melanoma; five-dose screen; read-out: GI50
786–0 = assay: NCI60 five-dose screen, Renal Cancer; settings: Homo sapiens; 786–0, Renal Cancer; five-dose screen; read-out: GI50
MOLT-4 = assay: NCI60 five-dose screen, Leukemia; settings: Homo sapiens; MOLT-4, Leukemia; five-dose screen; read-out: GI50
UACC-62 = assay: NCI60 five-dose screen, Melanoma; settings: Homo sapiens; UACC-62, Melanoma; five-dose screen; read-out: GI50
SK-MEL-28 = assay: NCI60 five-dose screen, Melanoma; settings: Homo sapiens; SK-MEL-28, Melanoma; five-dose screen; read-out: GI50
HOP-92 = assay: NCI60 five-dose screen, Non-small Cell Lung Cancer; settings: Homo sapiens; HOP-92, Non-small Cell Lung Cancer; five-dose screen; read-out: GI50
KM12 = assay: NCI60 five-dose screen, Colon Cancer; settings: Homo sapiens; KM12, Colon Cancer; five-dose screen; read-out: GI50
RXF 393 = assay: NCI60 five-dose screen, Renal Cancer; settings: Homo sapiens, RXF 393, Renal Cancer
CAKI-1 = assay: NCI60 five-dose screen, Renal Cancer; settings: Homo sapiens; CAKI-1, Renal Cancer; five-dose screen; read-out: GI50
HCC-2998 = assay: NCI60 five-dose screen, Colon Cancer; settings: Homo sapiens; HCC-2998, Colon Cancer; five-dose screen; read-out: GI50
IGROV1 = assay: NCI60 five-dose screen, Ovarian Cancer; settings: Homo sapiens, IGROV-1; IGROV1, Ovarian Cancer; five-dose screen; read-out: GI50
SF-295 = assay: NCI60 five-dose screen, CNS Cancer; settings: Homo sapiens; SF-295, CNS Cancer; five-dose screen; read-out: GI50
HS 578T = assay: NCI60 five-dose screen, Breast Cancer; settings: Homo sapiens; HS 578T, Breast Cancer; five-dose screen; read-out: GI50
RPMI-8226 = assay: NCI60 five-dose screen, Leukemia; settings: Homo sapiens; RPMI-8226, Leukemia; five-dose screen; read-out: GI50

## CCC12C=CCN3CCC4(c5cc(NC(=O)CN6CCN(c7ccc(C(F)(F)F)cc7)CC6)c(OC)cc5N(C)C4C(O)(C(=O)OC)C1OC(C)=O)C32 (centres unmarked) [Compound 17]
MCF7
  GI50: 3.72 µM
NCI-H322M
  GI50: 15.1 µM
HT29
  GI50: 2.09 µM
COLO 205
  GI50: 3.24 µM
MDA-MB231ATCC
  GI50: 11.2 µM
MDA-MB-468
  GI50: 2.4 µM
TK-10
  GI50: 4.57 µM
[1]; 60 cell, mean over all 60 cell lines
  GI50: 5.53 µM
[1]; mean over Breast Cancer panel
  GI50: 6.11 µM
[1]; mean over CNS Cancer panel
  GI50: 4.01 µM
[1]; mean over Colon Cancer panel
  GI50: 4.31 µM
[1]; mean over Leukemia panel
  GI50: 2.75 µM
[1]; mean over Melanoma panel
  GI50: 5.89 µM
[1]; mean over Non-small Cell Lung Cancer panel
  GI50: 7.29 µM
[1]; mean over Ovarian Cancer panel
  GI50: 6.48 µM
[1]; mean over Prostate Cancer panel
  GI50: 4.88 µM
[1]; mean over Renal Cancer panel
  GI50: 6.01 µM
SR
  GI50: 2.95 µM
HCT-116
  GI50: 3.72 µM
SK-OV-3
  GI50: 3.31 µM
MDA-MB-435
  GI50: 1.95 µM
MALME-3M
  GI50: 14.8 µM
EKVX
  GI50: 6.03 µM
UO-31
  GI50: 5.13 µM
DU-145
  GI50: 6.46 µM
SNB-19
  GI50: 5.37 µM
OVCAR-8
  GI50: 8.51 µM
CCRF-CEM
  GI50: 3.24 µM
OVCAR-5
  GI50: 10.7 µM
SN12C
  GI50: 7.76 µM
M14
  GI50: 3.63 µM
786–0
  GI50: 6.31 µM
MOLT-4
  GI50: 2.09 µM
UACC-62
  GI50: 10.2 µM
SK-MEL-28
  GI50: 5.89 µM
HOP-92
  GI50: 2.57 µM
KM12
  GI50: 3.72 µM
RXF 393
  GI50: 5.37 µM
CAKI-1
  GI50: 2.63 µM
HCC-2998
  GI50: 7.76 µM
IGROV1
  GI50: 10 µM
SF-295
  GI50: 3.55 µM
HS 578T
  GI50: 14.8 µM
RPMI-8226
  GI50: 3.09 µM
